Measured values taken from EP4786474A1, “CRYSTALLINE FORM OF QUINAZOLINE DERIVATIVE AND PREPARATION METHOD THEREFOR” (Jiangsu Hengrui Pharmaceuticals Co., Ltd., priority 2023, dated 2025).

Columns and labels:
Assay in all cases: Ba/F3 cell proliferation assay (Celltiter-Glo)
Format in all cases: cell-based
Details in all cases: 72 h incubation
[1] = system: HER2 A775_G776insYVMA mutant Ba/F3 cells
Procedure: (§1) EGFR wild-type Ba/F3 cells (Cobioer, Cat. No. CBP73110) in the logarithmic growth phase were seeded into a 96-well plate at 2.5 × 10^3 cells/100 µL in a growth medium, and HER2 wild-type Ba/F3 cells (Cobioer, Cat. No. CBP73110) or HER2 A775_G776insYVMA mutant Ba/F3 cells (Cobioer, Cat. No. CBP73184) in the logarithmic growth phase were seeded into a 96-well plate at 5 × 10^3 cells/100 µL in a growth medium. The plates were placed in a cell incubator at 37 °C overnight. The next day, the compound diluted in a 3-fold gradient with a medium was added to the plates at 100 µL/well. All treatments were performed in triplicate. The plates were incubated in the cell incubator at 37 °C for another 72 h. Celltiter-Glo Luminescent cell viability assay was performed.
(§2) The cell proliferation rate corresponding to each well was calculated according to the following formula: proliferation% = (test compound well G3 - G0 average value)/(DMSO control well G3 average value - G0 average value) × 100. According to the proliferation rate and concentration corresponding to each gradient concentration well, a gradient curve for cell proliferation was fitted using Prism Graphpad software, and the GI50 (GI50 is defined as the compound concentration corresponding to a cell proliferation inhibition rate of 50%) of the compound was calculated.

[2] = system: EGFR wild-type Ba/F3 cells
Procedure: as §1, §2

[3] = system: HER2 wild-type Ba/F3 cells
Procedure: as §1, §2

In the case of Cc1cc(Nc2ncnc3ccc(NC4=NC(C)(C)CO4)cc23)ccc1Oc1ccn2ncnc2c1 [Tucatinib, reference compound], the “HER2 A775_G776 ins YVMA/ BaF3 Imax %” value [1] is reported as 100%.
For C=CC(=O)N1[C@@H]2CC[C@H]1C[C@@H](Oc1ccc3ncnc(Nc4ccc(Oc5ccn6ncnc6c5)c(C)c4F)c3c1)C2 [Example 1, 1-(endo-3-((4-((4-([1,2,4]Triazolo[1,5-a]pyridin-7-yloxy)-2-fluoro-3-methylphenyl)amino)quinazolin-6-yl)oxy)-8-azabicyclo[3.2.1]octan-8-yl)prop-2-en-1-one], the “EGFR WT/ BaF3 Imax %” value [2] was 100%, the “HER2 WT/ BaF3 Imax %” value [3] was 100% and the “HER2 A775_G776 ins YVMA/ BaF3 Imax %” value [1] was 100%.
